Measurements from ChEMBL document CHEMBL1122028, “1-Acyltriazoles as antiinflammatory agents” (J Med Chem, 1982).

Experiments:
Rattus norvegicus [1] = experiment: Biological activity against adjuvant-induced arthritis at the dose of 75 mg/kg (p.o.); assay type: functional; conditions: route oral
Rattus norvegicus [2] = experiment: Biological activity against adjuvant-induced arthritis at the dose of 150 mg/kg (p.o.); assay type: functional; conditions: route oral
Rattus norvegicus [3] = experiment: Biological activity against adjuvant-induced arthritis at the dose of 75 mg/kg (p.o.); 27/26; assay type: functional; conditions: route oral
Rattus norvegicus [4] = experiment: Biological activity against adjuvant-induced arthritis at the dose of 37.5 mg/kg (p.o.); 18/7; assay type: functional; conditions: route oral
Rattus norvegicus [5] = experiment: Biological activity against carrageenan-induced edema; assay type: functional; conditions: read-out: ID50 (the source's name)
Mus musculus [6] = experiment: Tested for antiinflammatory activity in the mouse active Arthus (MAA) test by peroral administration; assay type: functional; conditions: for ED50: po, read-out: ID50 (the source's name)
[7] = Therapeutic index (LD50/ID50, MAA) value of the compound; conditions: read-out: TI
Mus musculus [8] = experiment: Tested for antiinflammatory activity in the mouse active Arthus (MAA) test by intraperitoneal administration; assay type: functional; conditions: ip, read-out: ID50 (the source's name)
Rattus norvegicus [9] = experiment: Biological activity against adjuvant-induced arthritis at the dose of 150 mg/kg (p.o.); 21/73; assay type: functional; conditions: route oral
Rattus norvegicus [10] = experiment: Biological activity against adjuvant-induced arthritis at the dose of 37.5 mg/kg (p.o.); assay type: functional; conditions: route oral
[11] = Lethal dose required to produce acute toxicity in mice(po); assay type: organism-based; conditions: mouse, in vivo
[12] = Lethal dose required to produce acute toxicity in mice(ip); assay type: organism-based; conditions: mouse, in vivo
Rattus norvegicus [13] = experiment: Biological activity against adjuvant-induced arthritis at the dose of 30 mg/kg (p.o.); assay type: functional; conditions: route oral
Rattus norvegicus [14] = species: Rattus norvegicus; experiment: animal or person; conditions: po, read-out: Inhibition
Description: Biological activity against adjuvant-induced arthritis at the dose of 30 mg/kg (p.o.); 30/30

Rattus norvegicus [15] = experiment: Biological activity against adjuvant-induced arthritis at the dose of 60 mg/kg (p.o.); assay type: functional; conditions: route oral
Rattus norvegicus [16] = experiment: Biological activity against adjuvant-induced arthritis at the dose of 120 mg/kg (p.o.); assay type: functional; conditions: route oral
Rattus norvegicus [17] = species: Rattus norvegicus; experiment: animal or person; conditions: po, read-out: Inhibition; remark: listed apart in the source
Description: Biological activity against adjuvant-induced arthritis at the dose of 60 mg/kg (p.o.); 56/61

Rattus norvegicus [18] = experiment: Biological activity against adjuvant-induced arthritis at the dose of 120 mg/kg (p.o.); 65/57; assay type: functional; conditions: route oral

SMILES: CC(=O)n1nc(-c2ccc(Cl)cc2)nc1C
- inhibition in vivo at 75 mg/kg (Rattus norvegicus [1]): 90%
- inhibition in vivo at 150 mg/kg (Rattus norvegicus [2]): 90%
- inhibition in vivo at 75 mg/kg (Rattus norvegicus [3]): 27%
- inhibition in vivo at 37.5 mg/kg (Rattus norvegicus [4]): 18%
- ED50 (Rattus norvegicus [5]): > 150 mg/kg
- ID40 (Mus musculus [6]): 175 mg/kg
- ED50 (Mus musculus [6]): 342 mg/kg
- selectivity ratio [7]: > 9.35
- ED50 (Mus musculus [8]): 37 mg/kg
- inhibition in vivo at 150 mg/kg (Rattus norvegicus [9]): 21%
- inhibition in vivo at 37.5 mg/kg (Rattus norvegicus [10]): 90%
- LD50 [11]: > 3200 mg/kg
- LD50 [12]: 600 mg/kg

SMILES: Cc1nnc(C)n1/N=C(\N)c1ccc(C(F)(F)F)cc1
- ED50 (Mus musculus [6]): > 600 mg/kg

SMILES: CCc1nnc(CC)n1N
- ED50 (Mus musculus [6]): > 600 mg/kg

SMILES: Cc1nc(-c2ccc(Cl)cc2)nn1C(=O)c1ccccc1
- ED50 (Mus musculus [6]): > 600 mg/kg

SMILES: Cc1ccc(C(=N)Nn2c(C)nnc2C)cc1
- ED50 (Mus musculus [6]): > 600 mg/kg

SMILES: CC(=O)n1nc(-c2ccc(C)cc2)nc1C
- ED50 (Mus musculus [6]): > 600 mg/kg

SMILES: Cc1nnc(C)n1/N=C(\N)c1ccccc1
- ED50 (Mus musculus [6]): > 600 mg/kg

SMILES: CC(=O)n1nc(-c2ccc(C(F)(F)F)cc2)nc1C
- ED50 (Mus musculus [6]): 411 mg/kg

SMILES: CCC(=O)n1nc(-c2ccc(Cl)cc2)nc1C
- ED50 (Mus musculus [6]): 408 mg/kg

SMILES: CCc1nnc(CC)n1/N=C(\N)c1ccc(Cl)cc1
- ED50 (Mus musculus [6]): > 600 mg/kg

SMILES: CCc1nc(-c2ccc(Cl)cc2)nn1C(C)=O
- ED50 (Mus musculus [6]): 543 mg/kg

SMILES: CC(=O)n1nc(-c2ccccc2)nc1C
- ED50 (Mus musculus [6]): 439 mg/kg

SMILES: CC(C)Cc1ccc(C(C)C(=O)O)cc1 (configuration not stated) [IBUPROFEN]
- inhibition in vivo at 30 mg/kg (Rattus norvegicus [13]): 100%
- inhibition in vivo at 30 mg/kg (Rattus norvegicus [14]): 30%
- inhibition in vivo at 60 mg/kg (Rattus norvegicus [15]): 100%
- inhibition in vivo at 120 mg/kg (Rattus norvegicus [16]): 100%
- ED50 (Rattus norvegicus [5]): 70 mg/kg
- inhibition in vivo at 60 mg/kg (Rattus norvegicus [17]): 56%
- ID40 (Mus musculus [6]): 386 mg/kg
- ED50 (Mus musculus [6]): > 600 mg/kg
- selectivity ratio [7]: < 2.15
- ED50 (Mus musculus [8]): > 150 mg/kg
- LD50 [11]: 1650 mg/kg
- inhibition in vivo at 120 mg/kg (Rattus norvegicus [18]): 65%
- LD50 [12]: 490 mg/kg
